Data set [1] in a line: Pharmacokinetics study in mice, single oral dose. Type of data set: in vivo. Particulars: mouse; male ICR mice, single-dose oral administration of 30 mg/kg, plasma. The procedure:
A pharmacokinetics (PK) study was performed using male ICR mice to compare the oral absorption properties of the present compounds with tolvaptan. A test compound was suspended in a 1% hydroxypropyl methylcellulose (HPMC) solution to be adjusted to the concentration of 4.5 mg/mL. The present compounds were used as the forms obtained in the above examples (including the amorphous form) for a test compound, or used after spray drying, if needed.
Male ICR mice (7-week old) were freely fed food and water and weighed on an electronic scale. Then, a test compound was orally administered at the dose of 30 mg/kg […]. After the oral administration, blood was collected from the abdominal vena cava under isoflurane anesthesia using a 1 mL heparinized syringe with a 26 G injection needle. Blood was separated by centrifugation at 4° C., 3000 rpm for 10 minutes to give plasma in a supernatant. The plasma concentration of a test compound was measured by LC-MS/MS.
The following PK parameters were calculated using the mean plasma concentrations of unchanged substances obtained from two animals at each time point.
Cmax: Maximum plasma concentration (μg/mL)
tmax: Time-to-maximum plasma concentration (h)
AUCinf: Area under the plasma concentration-time curve from administration to infinite time (μg h/mL)

The target in data set [2] is T1, rat vasopressin V1a receptor (Rattus norvegicus, UniProt P30560).
T1 construct: V1a receptor fractions derived from rat hepatic membrane; from tissue; host or cells: rat liver (hepatic membrane)
Description: Binding inhibition test for rat V1a receptor (3H-AVP, rat hepatic membrane). Particulars: inhibition of 3H-AVP binding, rat hepatic membrane V1a receptor fractions, 4° C., 2 hours; read-out: Binding affinity rV1a (IC50). The protocol: (§1) Various compounds were studied in binding affinities for vasopressin receptors with an indicator of binding inhibition of rat vasopressin V1a receptor and vasopressin V2 receptor of ^3H-arginine vasopressin (AVP) (NET800, available from PerkinElmer Inc., Life Sciences).
(1) Binding Inhibition Test for Rat V1a Receptor (rV1aR)
50 μg of V1a receptor fractions derived from rat hepatic membrane were diluted with a reaction solution (100 mM Tris-HCl (pH 8.0), 0.1% BSA, 5 mM MgCl2, 1 mM EDTA) and added to each well of a 96-well plate. A compound was added to each well in various concentrations (0.3 nM to 100 nM), and ^3H-AVP was added thereto in the range of 1 nM to 3 nM. Reactions were carried out at 4° C. for 2 hours on the plate. Via receptor fractions were collected with a 96-well glass filter (Unifilter GF/B) after the reactions and washed with a washing solution (10 mM Tris-HCl (pH 8.0), 5 mM MgCl2, 1 mM EDTA) three times, and then the radioactivity of ^3H-AVP was measured with a scintillation counter.
(§2) ^3H-AVP binding rate in the presence of a compound was calculated by the following equation. Binding rate (%)=(B−NSB)/(TB−NSB)×100 (B: Binding amount of ^3H-AVP in the presence of each compound, NSB: Binding amount of ^3H-AVP in the presence of 1 μM of unlabeled AVP, TB: Binding amount of ^3H-AVP in the absence of 1 μM of unlabeled AVP)

Data set [3] deals with T2, rat vasopressin V2 receptor (Rattus norvegicus, UniProt Q00788).
T2 construct: expressed in transfected cells; host or cells: CHO cells (rV2R-CHO)
Description: Binding inhibition test for rat V2 receptor (3H-AVP, rV2R-CHO cells). Particulars: inhibition of 3H-AVP binding, 4° C., 2 hours, read-out: Binding affinity rV2 (IC50). The protocol:
as §1
(2) Binding Inhibition Test for Rat V2 Receptor (rV2R)
Rat V2 receptor-expressed CHO cells (rV2R—CHO) were incubated on 10% FBS-containing DMEM/F12 in a 24-well plate, and each cell was washed with D-PBS twice. A reaction solution (D-PBS containing 0.1% BSA and 0.05% sodium azide) comprising a compound in various concentrations (0.3 nM to 100 nM) was added to each well, and a certain amount of ^3H-AVP was added thereto (100-fold dilution). Reactions were carried out at 4° C. for 2 hours on the plate. Then, each well was washed with D-PBS twice and 0.1N NaOH was added to each well. The cells were collected, and the radioactivity of ^3H-AVP was measured with a scintillation counter.
as §2

The nature of data set [4]: Metabolic stability test in human liver microsomes. The data set is classed as in vitro ADME. Particulars: pH 7.4; human liver microsomes 1 mg/mL, test compound 1 μmol/L, NADPH and NADH, 37° C., n = 4; read-out: CLint (μL/min/mg) mean ± SD. The protocol: Reaction System and Incubation
According to methods of Obach and Jones, et al. (methods described in R. S. Obach, Drug Metab. Dispos. 1999 (27): 1350-1359 and H. Jones and J. B. Houston, Drug Metab. Dispos. 2004 (32): 973-982), the reaction system shown below was prepared and metabolic stabilities of test compounds (the present compounds and, tolvaptan) were evaluated using the reaction system shown below. Human liver microsomes purchased from Corning Inc. were used. Test compounds were dissolved in DMSO at the concentration of 10 mmol/L and then diluted with acetonitrile to prepare a 100 μmol/L solution for use in the test. The 100 μmol/L solutions were used in the experiment.
Human liver microsome 1 mg/mL
Co-factor (NADPH and NADH) 1 mmol/L each
Magnesium chloride 5 mmol/L
100 mmol/L Potassium phosphate buffer (pH 7.4)
The reaction mixture without co-factors was pre-incubated at 37° C. for 5 minutes, and then the reaction was initiated by the addition of the co-factors. The mixture was incubated for 0, 5, 10, 20, 30, and 60 minutes after the addition of the co-factors. An aliquot of the reaction mixture was removed and added to a methanol solution containing an internal standard (IS) and mixed to terminate the reaction at each predetermined time.
After the reaction was terminated, the mixture was separated by centrifugation and the supernatant was injected into a liquid chromatograph-tandem mass spectrometer (LC-MS/MS) to measure unchanged substances remained in the reaction system. The mass spectrometer was operated in a positive ion mode of the electrospray ionization (ESI) method. Unchanged substances and the IS were detected by multiple reaction monitoring (MRM) transitions using selected precursor and product ions set.
The remaining ratios of test compounds were calculated by the following equation. Remaining ratio=(Peak area ratio of a test compound to IS at t minutes after incubation)÷(Peak area ratio of a test compound to IS at 0 minute)
The slope of X-axis (the incubation time) and Y-axis (logarithm of the remaining ratio) was calculated by a non-linear least square method. Hepatic intrinsic clearance (CLint) was calculated by the following equation. CLint(μL/min/mg)=−(Slope(min^−1))÷1(mg/mL)×1000

Structures are written as SMILES.

T1 sequence (P30560 whole entry): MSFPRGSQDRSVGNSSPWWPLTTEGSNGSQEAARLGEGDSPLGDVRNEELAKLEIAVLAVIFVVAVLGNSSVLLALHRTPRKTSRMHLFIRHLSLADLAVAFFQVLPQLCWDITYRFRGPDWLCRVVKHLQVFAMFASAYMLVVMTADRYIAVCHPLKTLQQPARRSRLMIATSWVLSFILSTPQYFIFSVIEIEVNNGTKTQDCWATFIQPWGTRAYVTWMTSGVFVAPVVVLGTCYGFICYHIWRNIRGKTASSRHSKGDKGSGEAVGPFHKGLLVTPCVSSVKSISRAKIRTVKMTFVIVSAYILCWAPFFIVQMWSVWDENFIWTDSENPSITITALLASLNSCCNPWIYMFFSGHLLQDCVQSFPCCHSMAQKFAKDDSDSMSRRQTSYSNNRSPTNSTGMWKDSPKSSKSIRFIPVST
T2 sequence (Q00788 whole entry): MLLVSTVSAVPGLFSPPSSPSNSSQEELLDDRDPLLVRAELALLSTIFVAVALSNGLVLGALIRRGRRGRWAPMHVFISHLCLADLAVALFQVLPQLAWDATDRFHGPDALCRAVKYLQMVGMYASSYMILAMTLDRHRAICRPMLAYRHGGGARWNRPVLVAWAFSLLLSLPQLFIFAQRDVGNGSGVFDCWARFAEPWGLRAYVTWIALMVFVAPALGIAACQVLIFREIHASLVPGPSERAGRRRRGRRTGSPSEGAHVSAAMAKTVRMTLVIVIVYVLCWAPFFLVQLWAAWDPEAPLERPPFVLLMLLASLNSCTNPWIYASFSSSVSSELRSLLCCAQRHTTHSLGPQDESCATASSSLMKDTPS

In the case of `O=C(Nc1ccc(C(=O)N2CCC(F)(F)[C@](O)(CO)c3cc(Cl)ccc32)cn1)c1cccnc1C(F)(F)F` [Example 66, N-{5-[(5R)-7-chloro-4,4-difluoro-5-hydroxy-5-(hydroxymethyl)-2,3,4,5-tetrahydro-1H-1-benzazepine-1-carbonyl]pyridin-2-yl}-2-(trifluoromethyl)pyridine-3-carboxamide], in data set [1], the AUC(0-inf) worked out at 38300 ng·h/mL, the Cmax worked out at 4550 ng/mL and the Tmax came to 1 h. Moreover, the IC50 in data set [2] stood at 21.1 nM. Moreover, the IC50 in data set [3] was determined as 3.5 nM. Also, the microsomal CLint at 1 μmol/L in data set [4] was less than 4 µL/min/mg.
With `O=C(Nc1ccc(C(=O)N2CCC(F)(F)[C@](O)(CO)c3cc(Cl)ccc32)cn1)c1cc(F)ccc1-c1ccccc1` [Example 96, N-{5-[(5R)-7-chloro-4,4-difluoro-5-hydroxy-5-(hydroxymethyl)-2,3,4,5-tetrahydro-1H-1-benzazepine-1-carbonyl]pyridin-2-yl}-4-fluoro-[1,1′-biphenyl]-2-carboxamide], in data set [1], the AUC(0-inf) stood at 43000 ng·h/mL, the Cmax worked out at 5550 ng/mL and the Tmax stood at 4 h. Further, the IC50 in data set [2] turned out to be 2 nM. In addition, the IC50 in data set [3] is 5 nM. For the same compound, the microsomal CLint at 1 μmol/L in data set [4] was found to be 0.953 ± 1.91 µL/min/mg.
For `O=C(Nc1ccc(C(=O)N2CCC(F)(F)[C@](O)(CO)c3cc(Cl)ccc32)cn1)c1cccnc1-c1ccccc1` [Example 97, N-{5-[(5R)-7-chloro-4,4-difluoro-5-hydroxy-5-(hydroxymethyl)-2,3,4,5-tetrahydro-1H-1-benzazepine-1-carbonyl]pyridin-2-yl}-2-phenylpyridine-3-carboxamide], in data set [1], the AUC(0-inf) was found to be 8310 ng·h/mL, the Cmax amounted to 3130 ng/mL and the Tmax was determined as 1 h. The IC50 in data set [2] worked out at 5.4 nM. Also, the IC50 in data set [3] worked out at 1.4 nM. For the same compound, in data set [4], the microsomal CLint at 1 μmol/L was 6.98 ± 4.77 µL/min/mg.
`O=C(Nc1ccc(C(=O)N2CCC(F)(F)[C@](O)(CO)c3cc(Cl)ccc32)cc1)c1cc(F)ccc1C(F)(F)F` [Example 127, N-{4-[(5R)-7-chloro-4,4-difluoro-5-hydroxy-5-(hydroxymethyl)-2,3,4,5-tetrahydro-1H-1-benzazepine-1-carbonyl]phenyl}-5-fluoro-2-(trifluoromethyl)benzamide]: in data set [1], the AUC(0-inf) is 93800 ng·h/mL, the peak level (Cmax) was 7950 ng/mL and the Tmax is 1 h. Also, in data set [2], the IC50 came to 7.2 nM. Besides, the IC50 in data set [3] turned out to be 1.8 nM. In addition, in data set [4], the microsomal CLint at 1 μmol/L is less than 4 µL/min/mg.
Regarding `O=C(Nc1ccc(C(=O)N2CCC(F)(F)[C@](O)(CO)c3cc(Cl)ccc32)cc1F)c1cc(F)ccc1C(F)(F)F` [Example 132], in data set [1], the AUC(0-inf) was determined as 56500 ng·h/mL, the Cmax worked out at 3590 ng/mL and the Tmax worked out at 4 h. In addition, the IC50 in data set [2] was 5.2 nM. In data set [3], the IC50 was found to be 2.3 nM. In data set [4], the microsomal CLint at 1 μmol/L was less than 4 µL/min/mg.
For `O=C(Nc1ccc(C(=O)N2CCC(F)(F)[C@](O)(CO)c3cc(Cl)ccc32)cc1)c1cc(F)ccc1-c1ccccc1` [Example 153, N-{4-[(5R)-7-chloro-4,4-difluoro-5-hydroxy-5-(hydroxymethyl)-2,3,4,5-tetrahydro-1H-1-benzazepine-1-carbonyl]phenyl}-4-fluoro-[1,1′-biphenyl]-2-carboxamide], in data set [1], the AUC(0-inf) stood at 34000 ng·h/mL, the Cmax turned out to be 5480 ng/mL and the Tmax was determined as 1 h. Moreover, the IC50 in data set [2] is 3.6 nM. The half-maximal inhibitory concentration (IC50) in data set [3] worked out at 4.5 nM. The microsomal CLint at 1 μmol/L in data set [4] stood at 1.91 ± 2.22 µL/min/mg.
On to `O=C(Nc1ccc(C(=O)N2CCC(F)(F)[C@](O)(CO)c3cc(Cl)ccc32)cc1F)c1cc(F)ccc1C(F)F` [Example 157, N-{4-[(5R)-7-chloro-4,4-difluoro-5-hydroxy-5-(hydroxymethyl)-2,3,4,5-tetrahydro-1H-1-benzazepine-1-carbonyl]-2-fluorophenyl}-2-(difluoromethyl)-5-fluorobenzamide], for which, in data set [1], the AUC(0-inf) was 80500 ng·h/mL, the maximum concentration (Cmax) came to 6210 ng/mL and the Tmax came out at 1 h. Besides, in data set [2], the IC50 was 12 nM. For the same compound, the IC50 in data set [3] worked out at 3.2 nM. The microsomal CLint at 1 μmol/L in data set [4] was less than 4 µL/min/mg.

The values above are taken from patent US11673878B2, “Benzazepine derivatives” (OTSUKA PHARMACEUTICAL CO., LTD., priority 2017, dated 2023).
